# Procedure: Then, SH556 (phenyl-modified silicone oil) was added to this liquid crystal composition to prepare the liquid crystal composition of the present invention.
# (§1) The solubilized concentration (saturated concentration of solubilization) of oil was measured by sample appearance, for example, cloudiness or phase separation.
# Then, a mixed oil of SH556 and squalane or a mixed oil of KF50-100CS and squalane was added to the mixed surfactant aqueous solution, thereby preparing the liquid crystal compositions of the present invention. The weight ratio of a phenyl-modified silicone oil (SH556 or KF50-100CS) and squalane is 1:1 in each mixed oil. Moreover, as a comparative example, squalane alone was added to the mixed surfactant aqueous solution to prepare a liquid crystal composition for the comparative example.
# The solubilized concentration of oil (mixed oil or squalane) in each liquid crystal composition was evaluated. The solubilized concentration (saturated concentration of solubilization) of oil was measured by sample appearance, for example, cloudiness or phase separation.
# Then, a mixed oil of SH556 and squalane was added to each mixed surfactant aqueous solution, thereby preparing the liquid crystal compositions of the present invention. The weight ratio of SH556 and squalane is 1:1 in the mixed oil. Moreover, as comparative examples, squalane alone was added to the mixed surfactant aqueous solutions to prepare liquid crystal compositions for the comparative examples.
# (§2) The solubilized concentration of oil (a mixed oil of SH556 and squalane or squalane) in each liquid crystal composition was evaluated. The solubilized concentration (saturated concentration of solubilization) of oil was measured by sample appearance, for example, cloudiness or phase separation.
# Then, a mixed oil of SH556 and α-lipoic acid or a mixed oil of SH556 and oleic acid was added to the mixed surfactant aqueous solution, thereby preparing the liquid crystal compositions of the present invention. The weight ratio of SH556 and a fatty acid (α-lipoic acid or oleic acid) is 1:1 in each mixed oil.
# as §2, with “α-lipoic acid, a mixed oil of SH556 and oleic acid, α-lipoic acid” for “squalane”, “oleic acid)” for “squalane)”
# as §1
compound,measurement,value
phenyl trimethicone [SH556],effect of enhancing solubility of squalane,showed the effect of enhancing solubility of squalane
same,solubilized concentration of oil,at least 25 % by weight
CCCCCCCCCCCCCCCCOC(=O)CCCCC(C)C [cetyl isooctanoate],solubilized concentration of cetyl isooctanoate,up to 12.96 % by weight
CCCCCCCC/C=C\CCCCCCCC(=O)O [oleic acid],solubilized concentration of oleic acid,up to 11.7 % by weight
CC(C)CCCC(C)CCCC(C)CCCCC(C)CCCC(C)CCCC(C)C (stereo not drawn) [squalane],solubilized concentration of oil,could not be dissolved
same,solubilized concentration of squalane,up to 3.125 % by weight
